Experimental data from ChEMBL document CHEMBL1201862, “PubChem BioAssay data set” (2004).
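Five concentrations, 48 hours, 96-well plates. GI50 is the concentration that inhibits growth by half.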 Active and inactive are the calls of the source. No stated cut-off is given here; in the data, active = GI50 up to about 1.1 µM and inactive = higher.

Key:
Assay in all cases: growth of human tumour cells (NCI), 48 h
ACHN = tested on: ACHN
SK-MEL-2 = tested on: SK-MEL-2
UACC-257 = tested on: UACC-257
KM12 = tested on: KM12
M14 = tested on: M14
MDA-MB-231 = tested on: MDA-MB-231
MOLT-4 = tested on: MOLT-4
SF-295 = tested on: SF-295
UO-31 = tested on: UO-31
MCF7 = tested on: MCF7
OVCAR-5 = tested on: OVCAR-5
SR = tested on: SR
U-251 = tested on: U-251
NCI-H226 = tested on: NCI-H226
HT-29 = tested on: HT-29
786-0 = tested on: 786-0
T47D = tested on: T47D
IGROV-1 = tested on: IGROV-1
A549 = tested on: A549
SW-620 = tested on: SW-620

SMILES	GI50 (ACHN)	GI50 (SK-MEL-2)	GI50 (UACC-257)	GI50 (KM12)	GI50 (M14)	GI50 (MDA-MB-231)	GI50 (MOLT-4)	GI50 (SF-295)	GI50 (UO-31)	GI50 (MCF7)	GI50 (OVCAR-5)	GI50 (SR)	GI50 (U-251)	GI50 (NCI-H226)	GI50 (HT-29)	GI50 (786-0)	GI50 (T47D)	GI50 (IGROV-1)	GI50 (A549)	GI50 (SW-620)
COc1cccc2c1C(=O)c1c(O)c3c(c(O)c1C2=O)C[C@@](O)(/C(C)=N/NC(=O)c1ccccc1)C[C@@H]3OC1CC(N)C(O)C(C)O1 (some centres not stated)	0.0802 µM (active)	0.505 µM (active)	0.594 µM (active)	0.392 µM (active)	0.203 µM (active)	0.49 µM (active)	0.0324 µM (active)	0.195 µM (active)	1.77 µM (inactive)	0.0467 µM (active)	0.643 µM (active)	0.0199 µM (active)	0.147 µM (active)	0.104 µM (active)	0.589 µM (active)	0.0562 µM (active)	0.159 µM (active)	0.262 µM (active)	0.206 µM (active)	0.136 µM (active)
COC(=O)C1=C(C(=O)OC)C(N(C)C)C(C(=O)OC)=C(C(=O)OC)S1	> 100 µM (inactive)	> 100 µM (inactive)	> 100 µM (inactive)	> 100 µM (inactive)	> 100 µM (inactive)	> 100 µM (inactive)	> 100 µM (inactive)	> 100 µM (inactive)	> 100 µM (inactive)	> 100 µM (inactive)	> 100 µM (inactive)	> 100 µM (inactive)	> 100 µM (inactive)	> 100 µM (inactive)	–	> 100 µM (inactive)	> 100 µM (inactive)	–	> 100 µM (inactive)	> 100 µM (inactive)
CCC(=O)NCCc1c[nH]c2ccc(OC)cc12	> 100 µM (inactive)	> 100 µM (inactive)	> 100 µM (inactive)	> 100 µM (inactive)	> 100 µM (inactive)	> 100 µM (inactive)	> 100 µM (inactive)	> 100 µM (inactive)	> 100 µM (inactive)	> 100 µM (inactive)	> 100 µM (inactive)	> 100 µM (inactive)	> 100 µM (inactive)	> 100 µM (inactive)	> 100 µM (inactive)	> 100 µM (inactive)	> 100 µM (inactive)	> 100 µM (inactive)	> 100 µM (inactive)	> 100 µM (inactive)
CCCCCCCCC[n+]1cccc(C2C(C(=O)OCC)=C(C)NC(C)=C2C(=O)OCC)c1	14.6 µM (inactive)	1.65 µM (inactive)	2.38 µM (inactive)	1.98 µM (inactive)	2.7 µM (inactive)	2.97 µM (inactive)	3.98 µM (inactive)	17 µM (inactive)	16.2 µM (inactive)	2.6 µM (inactive)	10.7 µM (inactive)	5.74 µM (inactive)	3.21 µM (inactive)	11.9 µM (inactive)	3.96 µM (inactive)	7.08 µM (inactive)	5.04 µM (inactive)	2.02 µM (inactive)	18.2 µM (inactive)	4.26 µM (inactive)
C/C(=N\N=C1/C(=O)OC(c2ccccc2)=C1C(=O)c1ccccc1)c1ccc([N+](=O)[O-])cc1	42.6 µM (inactive)	> 100 µM (inactive)	> 100 µM (inactive)	86.3 µM (inactive)	65.5 µM (inactive)	79.3 µM (inactive)	19.9 µM (inactive)	45.6 µM (inactive)	44.7 µM (inactive)	26.7 µM (inactive)	72.3 µM (inactive)	6.7 µM (inactive)	41.5 µM (inactive)	27.8 µM (inactive)	73.8 µM (inactive)	68.7 µM (inactive)	42.9 µM (inactive)	29.2 µM (inactive)	41.7 µM (inactive)	46.7 µM (inactive)
C=CCC1(O)c2ccccc2C(=O)c2c(O)ccc(O)c21 (configuration not stated)	13.7 µM (inactive)	2.68 µM (inactive)	5.3 µM (inactive)	3.94 µM (inactive)	5.01 µM (inactive)	6.15 µM (inactive)	1.93 µM (inactive)	5.07 µM (inactive)	16.8 µM (inactive)	4.11 µM (inactive)	17.2 µM (inactive)	5.48 µM (inactive)	3.97 µM (inactive)	7.03 µM (inactive)	7.28 µM (inactive)	11.7 µM (inactive)	7.74 µM (inactive)	5.98 µM (inactive)	7.55 µM (inactive)	5.79 µM (inactive)
O=C1/C(=C/c2ccccc2O)N=C(c2ccccc2)N1c1nc2ccccc2s1	23.7 µM (inactive)	9.18 µM (inactive)	19.8 µM (inactive)	7.73 µM (inactive)	17.1 µM (inactive)	18.3 µM (inactive)	19.5 µM (inactive)	14.7 µM (inactive)	36.6 µM (inactive)	3.37 µM (inactive)	51.4 µM (inactive)	2.24 µM (inactive)	10.1 µM (inactive)	22.7 µM (inactive)	20.9 µM (inactive)	14.5 µM (inactive)	21.1 µM (inactive)	15.6 µM (inactive)	–	11.2 µM (inactive)
